# Results from paper PMC10584170, “Machine learning-based phenotypic imaging to characterise the targetable biology of Plasmodium falciparum male gametocytes for the development of transmission-blocking antimalarials” (PLOS Pathogens, 2023).
# How the values were obtained:
# [1] = system: P. falciparum female gametocytes; assay: P. falciparum Dual Gamete Formation Assay (PfDGFA), female readout (Pfs25-positive female gametes); format: cell-based, Plasmodium falciparum NF54; details: for Average inhibition female (%): average of replicates; for % inhibition female (individual replicates) R1: replicate R1; for % inhibition female (individual replicates) R3: replicate R3; for % inhibition female (individual replicates) R4: replicate R4
# In short: (§1)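 Two sex-specific readouts come from one well: male exflagellation centres recorded by brightfield video right after activation, and female gametes scored by Cy3-anti-Pfs25 fluorescence after 24 h at 28°C.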
# [2] = system: P. falciparum male gametocytes; assay: P. falciparum Dual Gamete Formation Assay (PfDGFA), male readout (exflagellation); format: cell-based, Plasmodium falciparum NF54; details: for Average inhibition male (%): average of replicates; for % inhibition male (individual replicates) R1: replicate R1; for % inhibition male (individual replicates) R3: replicate R3; for % inhibition male (individual replicates) R4: replicate R4; for Activity: hit = >50% inhibition in male or female readout in at least 3 replicates, 0 = no class assigned
# In short: as §1
# [3] = 2µM, 24h preincubation with gametocytes prior to induction of gametogenesis
# [4] = 2µM, 24h preincubation, hits selected on >50% inhibition in the female readout across replicates
# [5] = 2µM, 24h preincubation, hits selected on >50% inhibition in the male readout across replicates
# [6] = PfDGFA at 2µM, 24h preincubation
# [7] = PfDGFA at 2µM, 24h preincubation with gametocytes prior to induction of gametogenesis
# [8] = PfDGFA at 2µM, 24h preincubation with gametocytes
Structure (SMILES),"Average inhibition female (%) [1, 3]","% inhibition female (individual replicates) R1 [1, 3]","% inhibition female (individual replicates) R3 [1, 3]","% inhibition female (individual replicates) R4 [1, 3]","Average inhibition male (%) [2, 3]","% inhibition male (individual replicates) R1 [2, 3]","% inhibition male (individual replicates) R3 [2, 3]","% inhibition male (individual replicates) R4 [2, 3]","% inhibition female (individual replicates) R1 [1, 7]","% inhibition female (individual replicates) R3 [1, 7]","% inhibition female (individual replicates) R4 [1, 7]","Average inhibition female (%) [1, 6]","% inhibition male (individual replicates) R1 [2, 7]","% inhibition male (individual replicates) R3 [2, 7]","% inhibition male (individual replicates) R4 [2, 7]","Average inhibition male (%) [2, 6]",further results
O=C(O)C(F)(F)F.O=[N+]([O-])c1cccc(CNCC2CCN(Cc3ccc(-c4ccccc4)cc3)CC2)c1 [TCMDC-141208],6.3%,-1.5%,6.7%,13.0%,36.0%,32.1%,8.2%,53.6%,–,–,–,–,–,–,–,–,"HitlevelF [1, 4]: 0; HitlevelM [2, 5]: 2; Activity [2, 6]: 0"
Cc1cc(F)ccc1-c1nc(Nc2ccncc2)c2ccn(C)c2n1 [TCMDC-141231],–,–,–,–,–,–,–,–,10.5%,-5.5%,-9.9%,-2.8%,-14.5%,-17.7%,32.9%,-2.0%,–
CCCC(C)NC(=O)[C@H]1CNCCN1C(=O)CCCc1ccccc1.O=C(O)C(F)(F)F (stereo partly drawn) [TCMDC-141270],–,–,–,–,–,–,–,–,8.3%,-18.4%,-2.2%,0.7%,-7.3%,-0.8%,2.9%,-3.3%,–
ON=C1CCc2cc(-c3cc(-c4ccc(OC5CCNCC5)cc4)oc3-c3ccncc3)ccc21 [TCMDC-141381],–,–,–,–,–,–,–,–,10.4%,-25.1%,18.2%,2.6%,12.4%,2.8%,13.5%,7.3%,–
CN(C)CCN(Cc1ccc(-c2ccc(CNCCc3ccccc3)cc2)nc1)C(=O)CCC1CCCC1.O=C(O)C(F)(F)F [TCMDC-141402],13.9%,22.3%,7.4%,7.2%,46.5%,41.7%,6.4%,71.6%,–,–,–,–,–,–,–,–,"HitlevelF [1, 4]: 0; HitlevelM [2, 5]: 2; Activity [2, 6]: 0"
O=C(C1CC1c1ccccc1)N(Cc1ccc(-c2ccc(CNCCc3ccccc3)cc2)cc1)C1CCNCC1.O=C(O)C(F)(F)F (stereo not drawn) [TCMDC-141443],24.9%,19.9%,29.6%,18.3%,40.0%,61.6%,28.4%,57.9%,–,–,–,–,–,–,–,–,"HitlevelF ([1]; 2µM, 24h preincubation, number of replicates with >50% inhibition in the female readout): 0; HitlevelM ([2]; 2µM, 24h preincubation, number of replicates with >50% inhibition in the male readout): 2"
O=C(CCC1CCCC1)N(Cc1ccc(-c2ccc(CNCCc3ccccc3)cc2)cc1)C1CCCNC1.O=C(O)C(F)(F)F (stereo not drawn) [TCMDC-141444],–,–,–,–,–,–,–,–,–,–,–,–,–,–,–,–,"Average inhibition female (%) [1, 8]: 21.8%; % inhibition female (individual replicates) R1 [1, 8]: 31.1%; % inhibition female (individual replicates) R3 [1, 8]: 20.3%; % inhibition female (individual replicates) R4 [1, 8]: 22.2%; HitlevelF ([1]; number of replicates with >50% inhibition in the female readout, 2µM): 0; Average inhibition male (%) [2, 8]: 71.0%; % inhibition male (individual replicates) R1 [2, 8]: 62.4%; % inhibition male (individual replicates) R3 [2, 8]: 42.1%; % inhibition male (individual replicates) R4 [2, 8]: 88.2%; HitlevelM ([2]; number of replicates with >50% inhibition in the male readout, 2µM): 3"
